Test results: BigSolDB 2.1

CC(=O)Nc1ccc(CC(=O)O)cc1
solubility (mole fraction)
Details	278.15 K	283.15 K	288.15 K	293.15 K	298.15 K	303.15 K	308.15 K	313.15 K	318.15 K
in 2-butanone	0.00496	0.00586	0.00689	0.00821	0.00975	0.0115	0.0137	0.0162	0.0192
in acetone	0.00366	0.00441	0.00534	0.00646	0.0078	0.00942	0.0114	0.0136	0.0161
in acetonitrile	0.00093	0.00116	0.00142	0.00175	0.00215	0.00262	0.00318	0.00381	0.00455
in cyclohexane	–	1.89e-06	2.51e-06	3.4e-06	4.44e-06	5.83e-06	7.44e-06	9.5e-06	1.21e-05
in ethanol	0.0062	0.00723	0.00851	0.0102	0.0121	0.0143	0.0171	0.0201	0.0238
in ethyl acetate	0.000627	0.000783	0.000985	0.00126	0.00156	0.00193	0.00238	0.00291	0.00357
in isopropanol	0.00293	0.00353	0.00437	0.0054	0.00666	0.00823	0.0101	0.0123	0.0149
in methanol	0.00792	0.00927	0.0113	0.0138	0.0169	0.0207	0.0249	0.0303	0.0369
in n-butanol	0.00401	0.0048	0.0058	0.00711	0.00871	0.0105	0.0126	0.0149	0.0178
in n-propanol	0.00538	0.00628	0.00745	0.00889	0.0105	0.0126	0.0149	0.0175	0.0204
in toluene	2.62e-06	3.44e-06	4.5e-06	5.88e-06	7.6e-06	9.71e-06	1.24e-05	1.59e-05	2.04e-05
in water	0.000163	0.000208	0.000264	0.000336	0.000421	0.000534	0.000661	0.000826	0.00104
